Where two headings read alike, the source gives them in different places. Marks after values point to notes of the source that are not given here.
Key:
[1] = test system: HT-29
[2] = test system: HEp-2; test: MTT cytotoxicity test, HEp-2 cells; conditions: HEp-2, MTT; concentration of the studied substance
[3] = test system: IL-12(p70); test: xMAP inflammation biomarkers in HEp-2 cells; format: cell-based, human; conditions: 2 days posttreatment, concentrations below CC50
[4] = test system: MCP-1 (MCAP); test: xMAP inflammation biomarkers in HEp-2 cells; format: cell-based, human; conditions: 2 days posttreatment, concentrations below CC50
[5] = test system: IL-8; test: xMAP inflammation biomarkers in HEp-2 cells; format: cell-based, human; conditions: 2 days posttreatment, concentrations below CC50
[6] = test system: IL-5; test: xMAP inflammation biomarkers in HEp-2 cells; format: cell-based, human; conditions: 2 days posttreatment, concentrations below CC50
[7] = test system: IL-17A; test: xMAP inflammation biomarkers in HEp-2 cells; format: cell-based, human; conditions: 2 days posttreatment, concentrations below CC50
[8] = test system: IL-13; test: xMAP inflammation biomarkers in HEp-2 cells; format: cell-based, human; conditions: 2 days posttreatment, concentrations below CC50
[9] = test system: TNFα; test: xMAP inflammation biomarkers in HEp-2 cells; format: cell-based, human; conditions: 2 days posttreatment, concentrations below CC50
[10] = test system: L41; test: MTT cytotoxicity test, L41 cells; conditions: concentration of the studied substance
[11] = test system: MIP-1β; test: xMAP inflammation biomarkers in HEp-2 cells; format: cell-based, human; conditions: 2 days posttreatment, concentrations below CC50
[12] = test system: MS2 RNA; test: RNase activity by RT^2-PCR, isolated MS2 RNA; format: biochemical, bacteriophage MS2; conditions: 0.1 mg/mL, 37 °C
[13] = test system: IL-7; test: xMAP inflammation biomarkers in HEp-2 cells; format: cell-based, human; conditions: 2 days posttreatment, concentrations below CC50
[14] = test system: SARS-CoV-2 RNA; format: biochemical; conditions: 0.1 mg/mL, 37 °C
[15] = test system: IL-2; test: xMAP inflammation biomarkers in HEp-2 cells; format: cell-based, human; conditions: 2 days posttreatment, concentrations below CC50
[16] = test system: IL-10; test: xMAP inflammation biomarkers in HEp-2 cells; format: cell-based, human; conditions: 2 days posttreatment, concentrations below CC50
[17] = test system: G-CSF; test: xMAP inflammation biomarkers in HEp-2 cells; format: cell-based, human; conditions: 2 days posttreatment, concentrations below CC50
[18] = test system: IL-6; test: xMAP inflammation biomarkers in HEp-2 cells; format: cell-based, human; conditions: 2 days posttreatment, concentrations below CC50
[19] = test system: IL-4; test: xMAP inflammation biomarkers in HEp-2 cells; format: cell-based, human; conditions: 2 days posttreatment, concentrations below CC50
[20] = target: SARS-CoV-2 recombinant antigen N (Severe acute respiratory syndrome coronavirus 2, UniProt P0DTC9)
[21] = test system: human cell lines (HEp-2, L41, HT-29); test: MTT cytotoxicity test, three human cell lines taken together; format: cell-based
[22] = test system: L41
[23] = test system: HT-29; test: MTT cytotoxicity test, HT-29 cells; conditions: HT-29, MTT; concentration of the studied substance
[24] = test system: GM-CSF; test: xMAP inflammation biomarkers in HEp-2 cells; format: cell-based, human; conditions: 2 days posttreatment, concentrations below CC50
[25] = test system: MS2 Phage; test: RNase activity by RT^2-PCR, whole MS2 phage; format: biochemical, bacteriophage MS2; conditions: 0.1 mg/mL
[26] = target: SARS-CoV-2 recombinant antigen S2 (Severe acute respiratory syndrome coronavirus 2, UniProt P0DTC2)
[27] = test system: IL-1β; test: xMAP inflammation biomarkers in HEp-2 cells; format: cell-based, human; conditions: two days after addition
[28] = test system: IFNγ; test: xMAP inflammation biomarkers in HEp-2 cells; format: cell-based, human; conditions: 2 days posttreatment, concentrations below CC50
[29] = Stability on storage / in media; format: physicochemical; conditions: storage in water solution
[30] = test system: SARS-CoV-2 RNA from COVID-19 Patient Blood; format: biochemical
[31] = Height of nanomaterials by AFM; format: physicochemical
[32] = test system: influenza A viral and cellular RNA; parameters: method as in earlier work; conditions: 2 mM, 1 h at 37 °C; cited from earlier work
[33] = parameters: method as in earlier work; conditions: cited from earlier work

## O=[N+]([O-])[O-].[Ag+] [AgNO3]
[1]
  CC50, corresponding concentration of Ag+: 100 (63.49 Ag+) μg/mL
[2]
  Cytotoxic concentration CC50: 50 (31.75 Ag+) * μg/mL
[3]
  IL-12(p70), ratio of MFI to control intact cells: 0.70
[4]
  MCP-1 (MCAP), ratio of MFI to control intact cells: 1.19 ↑
[5]
  IL-8, ratio of MFI to control intact cells: 3.71 ↑
[6]
  IL-5, ratio of MFI to control intact cells: 0.88
[7]
  IL-17A, ratio of MFI to control intact cells: 0.97
[8]
  IL-13, ratio of MFI to control intact cells: 0.81
[9]
  TNFα, ratio of MFI to control intact cells: 1.15 ↑
[10]
  Cytotoxic concentration CC50: 100 (63.49 Ag+) μg/mL
[11]
  MIP-1β, ratio of MFI to control intact cells: 1.17 ↑
[12]
  Time for complete cleavage of isolated MS2 RNA: 15 min
[13]
  IL-7, ratio of MFI to control intact cells: 0.70
[14]
  Incubation necessary for exhaustive hydrolysis of SARS-CoV-2 RNA: 1 h
[14]; RT^2-PCR
  ΔCt = Ct (sample) − Ct (control), SARS-CoV-2 RNA: 0.9
[15]
  IL-2, ratio of MFI to control intact cells: 0.74
[16]
  IL-10, ratio of MFI to control intact cells: 0.78
[17]
  G-CSF, ratio of MFI to control intact cells: 1.12 ↑
[18]
  IL-6, ratio of MFI to control intact cells: 0.85
[19]
  IL-4, ratio of MFI to control intact cells: 0.84
[20]
  Effect on binding of antigen N with polyclonal antibodies (ELISA): inhibit binding
  Lowest concentration for significant reproducible binding suppression: 100 µg/mL
[21]; silver ions at 10 μg/mL
  Toxicity for three human cell lines: not toxic
[22]
  CC50, corresponding concentration of Ag+: 100 (63.49 Ag+) μg/mL
[23]
  Cytotoxic concentration CC50: 100 (63.49 Ag+) μg/mL
[24]
  GM-CSF, ratio of MFI to control intact cells: 0.92
[25]; 37 °C (data not shown)
  Incubation required for complete damage of RNA inside the MS2 phage: at least 1 h
[26]
  Effect on binding of antigen S2 with polyclonal antibodies (ELISA): inhibit binding
[26]; ELISA, antigen S2 with human polyclonal antibodies
  Lowest concentration for significant reproducible binding suppression: 100 µg/mL
[27]
  IL1β production: up to 0.08 pg/mL
[28]
  IFNγ, ratio of MFI to control intact cells: 1.03

## Li^+[Ag^+2Cys2^−(OH^−)2(NH3)2] [Ag-2S]
[29]
  Stability of structure and physico-chemical properties during storage: up to 10 years
[10]
  Cytotoxic concentration CC50: 21.2 (4.32 Ag+) μg/mL
[12]
  Time for complete cleavage of isolated MS2 RNA: 15 min
[14]
  Incubation necessary for exhaustive hydrolysis of SARS-CoV-2 RNA: 1 h
[30]
  ΔCt = Ct (sample) − Ct (control), SARS-CoV-2 RNA from COVID-19 Patient Blood: 1.6
[20]
  Effect on binding of antigen N with polyclonal antibodies (ELISA): did not significantly differ from the positive controls
[31]; height distribution histograms, includes protein shell for Ag NCs-IgG
  Particle height range (AFM): 1–2 nm
[31]; height histograms
  Most probable height (AFM): ~ 1 nm
[32]
  Cleavage of total RNA: Complete cleavage
[21]; over the human cell lines (Table 1)
  CC50: 5.3 to 21.2 µg/mL
[21]; range over the human cell lines, read-out: CC50
  CC50: 10 to 40 µM
[33]
  Damage of cellular DNA and viral antigens after incubation: neither cellular DNA nor viral antigens were damaged
[23]
  Cytotoxic concentration CC50: 15.9 (3.24 Ag+) μg/mL
[25]; 37 °C, RT^2-PCR
  ΔCt = Ct (sample) − Ct (control), MS2 Phage: 7.5

Reference: publication PMC9144282 (Viruses, 2022)
